Columns and labels:
Format in all cases: in vivo
GW ave = test: Post-emergent evaluation, average; details: after 2 weeks
Experimental: (§1) Seeds of the desired test plant species were planted in Grace-Sierra MetroMix® 306 planting mixture, which typically has a pH of 6.0 to 6.8 and an organic matter content of about 30 percent, in plastic pots with a surface area of 64 square centimeters. When required to ensure good germination and healthy plants, a fungicide treatment and/or other chemical or physical treatment was applied. The plants were grown for 7-21 days in a greenhouse with an approximate 15 hr photoperiod which was maintained at about 23-29° C. during the day and 22-28° C. during the night. Nutrients and water were added on a regular basis and supplemental lighting was provided with overhead metal halide 1000-Watt lamps as necessary. The plants were employed for testing when they reached the first or second true leaf stage.
(§2) A weighed amount, determined by the highest rate to be tested, of each test compound was placed in a 20 mL glass vial and was dissolved in 4 mL of a 97:3 v/v (volume/volume) mixture of acetone and dimethyl sulfoxide (DMSO) to obtain concentrated stock solutions. […] The concentrated stock solutions obtained were diluted with an aqueous mixture containing acetone, water, isopropyl alcohol, DMSO, Atplus 411F crop oil concentrate, and Triton X-155 surfactant in a 48.5:39:10:1.5:1.0:0.02 v/v ratio to obtain spray solutions of known concentration. The solutions containing the highest concentration to be tested were prepared by diluting 2 mL aliquots of the stock solution with 13 mL of the mixture and lower concentrations were prepared by serial dilution of the stock solution. Approximately 1.5 mL aliquots of each solution of known concentration were sprayed evenly onto each of the test plant pots using a DeVilbiss atomizer driven by compressed air pressure of 2 to 4 psi ([…]) to obtain thorough coverage of each plant. Control plants were sprayed in the same manner with the aqueous mixture. In this test an application rate of 1 ppm results in the application of approximately 1 g/Ha.
(§3) The treated plants and control plants were placed in a greenhouse as described above and watered by sub-irrigation to prevent wash-off of the test compounds. After 2 weeks the condition of the test plants as compared with that of the untreated plants was determined visually and scored on a scale of 0 to 100 percent where 0 corresponds to no injury and 100 corresponds to complete kill. Species abbreviations as described for Table I with the following additions: soybean (Glycine max, GLXMA), rape (Brassica napus, BRSNN), chickweed (Stellaria media, STEME), cocklebur (Xanthium strumarium XANST), lambsquarters (Chenopodium album, CHEAL), violet (Viola tricolor, VIOTR), bindweed (Polygonum convolvulus, POLCO), spurge (Euphorbia heterophylla, EPHHL), Canada thistle (Cirsium arvense, CIRAR), corn (Zea mays, ZEAMX), rice (Oryza sativa, ORYSA), wheat (Triticum aestivum, TRZAS), crabgrass (Digitaria sanguinalis, DIGSA), shattercane (Sorghum vulgare, SORVU) and yellow nutsedge (Cyperus esculentus, CYPES).

BW ave = test: Post-emergent evaluation, average; details: after 2 weeks
Experimental: as §1, §2, §3

[1] = system: morningglory (Ipomoea hederacea, IPOHE); test: Synergistic herbicidal activity, foliar track sprayer; details: methylidene mevalonate 933 g ae/ha alone, 14 days, 1% crop oil concentrate
Experimental: (§4) Methylidene mevalonate alone and in combination with nonanoic acid was applied to the foliage of rapidly growing plant material utilizing a track sprayer calibrated to deliver an application volume of 187 L/ha. These treatments were applied to both broadleaf and grass weed species. All treatments contained 1% crop oil concentrate. Assessment of herbicidal activity was performed visually relative to untreated controls after 14 days incubation in the greenhouse. Species abbreviations are as previously defined.

[2] = system: crabgrass (Digitaria sanguinalis, DIGSA); test: as above; details: methylidene mevalonate 933 g ae/ha alone, 14 days, 1% crop oil concentrate
Experimental: as §4

[3] = system: lambsquarters (Chenopodium album, CHEAL); test: as above; details: methylidene mevalonate 933 g ae/ha alone, 14 days, 1% crop oil concentrate
Experimental: as §4

[4] = system: wild oats (Avena fatua, AVEFA); test: as above; details: methylidene mevalonate 933 g ae/ha alone, 14 days, 1% crop oil concentrate
Experimental: as §4

[5] = system: pigweed (Amaranthus spp., AMARE); test: Post-emergent evaluation; details: after 2 weeks
Experimental: as §1, §2, §3

[6] = system: rape (Brassica napus, BRSNN); test: Post-emergent evaluation; details: after 2 weeks
Experimental: as §1, §2, §3

[7] = system: Canada thistle (Cirsium arvense, CIRAR); test: Post-emergent evaluation; details: after 2 weeks
Experimental: as §1, §2, §3

[8] = system: blackgrass (Alopecurus myosuroides, ALOMY); test: Post-emergent evaluation; details: after 2 weeks
Experimental: as §1, §2, §3

[9] = system: wild oats (Avena fatua, AVEFA); test: Post-emergent evaluation; details: after 2 weeks
Experimental: as §1, §2, §3

[10] = system: bindweed (Polygonum convolvulus, POLCO); test: Post-emergent evaluation; details: after 2 weeks
Experimental: as §1, §2, §3

[11] = system: rice (Oryza sativa, ORYSA); test: Post-emergent evaluation; details: after 2 weeks
Experimental: as §1, §2, §3

corn (Zea mays, ZEAMX) = test: Post-emergent evaluation; details: after 2 weeks
Experimental: as §1, §2, §3

[12] = system: spurge (Euphorbia heterophylla, EPHHL); test: Post-emergent evaluation; details: after 2 weeks
Experimental: as §1, §2, §3

C=C(CO)C(C)(O)CC(=O)O (centres unmarked) [methylidene mevalonate, 3-hydroxy-4-(hydroxymethyl)-3-methylpent-4-enoic acid]
Postemergent % Control, GW ave (GW ave; spray concentration 125 ppm): 12% | Postemergent % Control, GW ave (GW ave; spray concentration 250 ppm): 39% | Postemergent % Control, GW ave (GW ave; spray concentration 500 ppm): 64% | Postemergent % Control, GW ave (GW ave; spray concentration 1000 ppm): 82% | Postemergent % Control, GW ave (GW ave; spray concentration 2000 ppm): 88% | Postemergent % Control, BW ave (BW ave; spray concentration 125 ppm): 11% | Postemergent % Control, BW ave (BW ave; spray concentration 250 ppm): 15% | Postemergent % Control, BW ave (BW ave; spray concentration 500 ppm): 37% | Postemergent % Control, BW ave (BW ave; spray concentration 1000 ppm): 54% | Postemergent % Control, BW ave (BW ave; spray concentration 2000 ppm): 63% | Actual Injury % growth reduction [1]: 60% | Actual Injury % growth reduction [2]: 35% | Actual Injury % growth reduction [3]: 0% | Actual Injury % growth reduction [4]: 35% | Postemergent % Control ([5]; spray concentration 125 ppm): 10% | Postemergent % Control ([5]; spray concentration 250 ppm): 30% | Postemergent % Control ([5]; spray concentration 500 ppm): 100% | Postemergent % Control ([5]; spray concentration 1000 ppm): 100% | Postemergent % Control ([5]; spray concentration 2000 ppm): 100% | Postemergent % Control ([6]; spray concentration 125 ppm): 0% | Postemergent % Control ([6]; spray concentration 250 ppm): 10% | Postemergent % Control ([6]; spray concentration 500 ppm): 50% | Postemergent % Control ([6]; spray concentration 1000 ppm): 50% | Postemergent % Control ([6]; spray concentration 2000 ppm): 60% | Postemergent % Control ([7]; spray concentration 125 ppm): 10% | Postemergent % Control ([7]; spray concentration 250 ppm): 10% | Postemergent % Control ([7]; spray concentration 500 ppm): 20% | Postemergent % Control ([7]; spray concentration 1000 ppm): 40% | Postemergent % Control ([7]; spray concentration 2000 ppm): 50% | Postemergent % Control ([8]; spray concentration 125 ppm): 0% | Postemergent % Control ([8]; spray concentration 250 ppm): 20% | Postemergent % Control ([8]; spray concentration 500 ppm): 60% | Postemergent % Control ([8]; spray concentration 1000 ppm): 70% | Postemergent % Control ([8]; spray concentration 2000 ppm): 80% | Postemergent % Control ([9]; spray concentration 125 ppm): 0% | Postemergent % Control ([9]; spray concentration 250 ppm): 0% | Postemergent % Control ([9]; spray concentration 500 ppm): 20% | Postemergent % Control ([9]; spray concentration 1000 ppm): 85% | Postemergent % Control ([9]; spray concentration 2000 ppm): 90% | Postemergent % Control ([10]; spray concentration 125 ppm): 20% | Postemergent % Control ([10]; spray concentration 250 ppm): 20% | Postemergent % Control ([10]; spray concentration 500 ppm): 85% | Postemergent % Control ([10]; spray concentration 1000 ppm): 90% | Postemergent % Control ([10]; spray concentration 2000 ppm): 95% | Postemergent % Control ([11]; spray concentration 125 ppm): 0% | Postemergent % Control ([11]; spray concentration 250 ppm): 30% | Postemergent % Control ([11]; spray concentration 500 ppm): 40% | Postemergent % Control ([11]; spray concentration 1000 ppm): 80% | Postemergent % Control ([11]; spray concentration 2000 ppm): 80% | Postemergent % Control (corn (Zea mays, ZEAMX); spray concentration 125 ppm): 0% | Postemergent % Control (corn (Zea mays, ZEAMX); spray concentration 250 ppm): 20% | Postemergent % Control (corn (Zea mays, ZEAMX); spray concentration 500 ppm): 60% | Postemergent % Control (corn (Zea mays, ZEAMX); spray concentration 1000 ppm): 98% | Postemergent % Control (corn (Zea mays, ZEAMX); spray concentration 2000 ppm): 98% | Postemergent % Control ([12]; spray concentration 125 ppm): 30% | Postemergent % Control ([12]; spray concentration 250 ppm): 30% | Postemergent % Control ([12]; spray concentration 500 ppm): 50% | Postemergent % Control ([12]; spray concentration 1000 ppm): 60% | Postemergent % Control ([12]; spray concentration 2000 ppm): 70%
